Here are results for 32 molecules from patent publication US9233086B2 (THE REGENTS OF THE UNIVERSITY OF MICHIGAN, priority 2010, dated 2016).

The test concerns the target WDR5 (Homo sapiens (Human), UniProt P61964). As to the kind of experiment: FP based competitive binding assay to WDR5. Conditions: for Ki: read-out: Ki ± SD; for times less potent than Ac-3mer: ratio vs Ac-3mer; for fold decrease of binding affinity relative to Ac-10mer: ratio vs Ac-10mer. The protocol:
Another aspect of the invention is development of a Fluorescent Polarization (FP) based competitive binding assay. […] Next, the millipolarization (mP) values were measured at different time points in order to determine equilibrium duration and stability.
Accordingly, the optimal protein concentrations for the competitive assay was investigated.
All the FP based experiments were performed in MICROFLUOR® 2 Black, “U” Bottom, 96-well Microtiter Plates (ThermoSci.) and FP was measured as mP units in a microplate reader (Tecan Ultra) with excitation at 485 nm and emission at 530 nm. The Kd of the tracers and the IC50 value of the inhibitors were calculated using GraphPad Prism 4 software.
The binding affinities of the synthetic peptides shown in the study were measured using this competitive binding assay. A pre-incubated complex solution of WDR5Δ23 and the tracer in 120 μl assay buffer were added to dilutions of the test compound in 5 μl DMSO, giving final concentrations of WDR5Δ23 and the tracer of 4 nM and 0.6 nM, respectively. […] The plates were incubated with shaking at room temperature. The mP values were measured after five hours of incubation and Ki values were calculated using the equation described previously(31).

[1] abbreviates: read-out: Binding Affinity to WDR5 (IC50 ± SD), Table 5 peptidomimetics.
Setting [2] is: 4 nM WDR5Δ23, 0.6 nM 10mer-Thr-FAM tracer, Ki calculated by equation of ref. 31.
Where [3] appears, read: 4 nM WDR5Δ23, 0.6 nM 10mer-Thr-FAM tracer, read-out: IC50 ± SD.

Where two headings read alike, the source gives them in different places. Where a SMILES comes first, the peptide text is derived from it. [ ]: non-standard residue; d: D form. The star is where a group is joined. NHPhenethyl = c1ccc(CCN*)cc1; Isobutyryl = CC(C)C(=O)*; Deg = CCC(N)(CC)C(=O)O; NHBn = c1ccc(CN*)cc1; NHPh = c1ccc(N*)cc1

For the molecule `CCC(CC)(NC(=O)C(C)C)C(=O)N[C@H](CCCNC(=N)N)C(=O)NC1(C(N)=O)CCCC1` [Compound 10D], the IC50 under setting [1] was less than 20 µM.
On the same count and under the same terms, for `CCC(CC)(NC(=O)c1ccccc1)C(=O)N[C@@H](CCCNC(=N)N)C(=O)NC1(C(N)=O)CCCC1` [Compound 10E] the value was greater than 1 µM; for `CCC(CC)(NC(=O)c1ccccc1)C(=O)N[C@H](CCCNC(=N)N)C(=O)NC1(C(N)=O)CCCC1` [Compound 10F], greater than 5 µM.
Turning to `CCC(CC)(NC(=O)C(C)C)C(=O)N[C@@H](CCCNC(=N)N(C)C)C(=O)NC1(C(N)=O)CCCC1` [Compound 10G], the concentration for half-maximal inhibition (IC50) under setting [1] is greater than 1 µM.
For the molecule `CCC(CC)(NC(=O)c1ccccc1)C(=O)N[C@@H](CCCNC(=N)N)C(=O)NC1(C(=O)NC(c2ccccc2)c2ccccc2)CCCC1` [Compound 10I], under setting [1], the IC50 is greater than 5 µM.
As for `CCC(CC)(NC(=O)c1ccccc1)C(=O)N[C@H](CCCNC(=N)N)C(=O)NC1(C(=O)NC(c2ccccc2)c2ccccc2)CCCC1` [Compound 10J], the concentration for half-maximal inhibition (IC50) under setting [1] is less than 10 µM.
`CC[C@H](C)NC(=O)[C@H](CCCNC(=N)N)NC(=O)C(CC)(CC)NC(=O)C(C)C` [Compound 11A]: the IC50 under setting [1] is less than 3 µM.
The same measure, in the same setting: for `CCC(CC)NC(=O)[C@H](CCCNC(=N)N)NC(=O)C(CC)(CC)NC(=O)C(C)C` [Compound 11B] the value was less than 1 µM; for `CCC(CC)(NC(=O)C(C)C)C(=O)N[C@@H](CCCNC(=N)N)C(=O)Nc1ccccc1` [Compound 11C] (Isobutyryl-[Deg]-Arg-NHPh), less than 10 µM.
On the same count and under the same terms, the same measure for `CCC(CC)(NC(=O)C(C)C)C(=O)N[C@@H](CCCNC(=N)N)C(=O)NCc1ccccc1` [Compound 11D] (Isobutyryl-[Deg]-Arg-NHBn): less than 30 µM.
As for `CCC(CC)(NC(=O)C(C)C)C(=O)N[C@@H](CCCNC(=N)N)C(=O)NC1CCCCC1` [Compound 11E], under setting [1], the IC50 is less than 10 µM.
On the same count and under the same terms, for `CCC(CC)(NC(=O)C(C)C)C(=O)N[C@@H](CCCNC(=N)N)C(=O)N[C@H](C)c1ccccc1` [Compound 11F] the value was less than 30 µM; for `CCC(CC)(NC(=O)C(C)C)C(=O)N[C@@H](CCCNC(=N)N)C(=O)N[C@@H](C)c1ccccc1` [Compound 11G], less than 30 µM; for `CCC(CC)(NC(=O)C(C)C)C(=O)N[C@@H](CCCNC(=N)N)C(=O)NC1CCCC1` [Compound 11I], less than 10 µM.
The same measure, in the same setting: the same measure for `CCC(CC)(NC(=O)C(C)C)C(=O)N[C@@H](CCCNC(=N)N)C(=O)NC(C(C)C)C(C)C` [Compound 11J]: less than 10 µM.
The same measure, in the same setting: for `CC[C@H](NC(=O)[C@H](CCCNC(=N)N)NC(=O)C(CC)(CC)NC(=O)C(C)C)c1ccccc1` [Compound 11K] the value was less than 3 µM; for `CCC(CC)(NC(=O)C(C)C)C(=O)N[C@@H](CCCNC(=N)N)C(=O)NCCc1ccccc1` [Compound 11L] (Isobutyryl-[Deg]-Arg-NHPhenethyl), greater than 10 µM; for `CCC(CC)(NC(=O)C(C)C)C(=O)N[C@@H](CCCNC(=N)N)C(=O)NCCCc1ccccc1` [Compound 11M], greater than 1 µM.
In the case of `CCC(CC)(NC(=O)C(C)C)C(=O)N[C@@H](CCCNC(=N)N)C(=O)NCCCCc1ccccc1` [Compound 11N], the IC50 under setting [1] was less than 10 µM.
On to `C[C@H](N)C(=O)N[C@@H](CCCNC(=N)N)C(=O)N[C@@H](C)C(N)=O` [Compound H2N-3mer, H2N-ARA-NH2] (H-Ala-Arg-Ala-NH2), for which the “binding to WDR5 (in words)” value is recorded as “does not bind to WDR5 up to the concentrations tested”.
`CC(C)C[C@H](NC(=O)[C@H](Cc1c[nH]cn1)NC(=O)[C@@H](NC(=O)[C@H](CCC(=O)O)NC(=O)[C@H](C)NC(=O)[C@H](CCCNC(=N)N)NC(=O)[C@H](C)N)C(C)C)C(=O)N[C@@H](CCCNC(=N)N)C(=O)N[C@@H](CCCCN)C(=O)N[C@@H](CO)C(N)=O` [Compound H2N-10mer]: the inhibition constant Ki under setting [2] is 7.3 ± 0.7 µM. Under setting [3], the IC50 stood at 34 ± 3 µM.
Take `C[C@H](N)C(=O)N[C@@H](CCCNC(=N)N)C(=O)N[C@H](C(N)=O)[C@@H](C)O` [Compound H3-3mer, H2N-ART-NH2, reference compound] (H-Ala-Arg-Thr-NH2): the Ki under setting [2] is 27.3 ± 2.5 µM. The IC50 under setting [3] was determined as 127 ± 12 µM.
Consider `C[C@H](N)C(=O)N[C@@H](CCCNC(=N)N)C(=O)N[C@H](C(=O)N[C@@H](CCCCN)C(=O)N[C@@H](CCC(N)=O)C(=O)N[C@H](C(=O)N[C@@H](C)C(=O)N[C@@H](CCCNC(=N)N)C(=O)N[C@@H](CCCCN)C(=O)N[C@@H](CO)C(N)=O)[C@@H](C)O)[C@@H](C)O` [Compound H3-10mer, reference compound], for which the Ki (4 nM WDR5Δ23, 0.6 nM 10mer-Thr-FAM tracer, Ki calculated by equation of ref. 31, listed as wild-type H3 peptide) was 15 µM. The IC50 under setting [3] came to 70 ± 6 µM.
As for `C[C@H](N)C(=O)N[C@@H](CCCNC(=N)N)C(=O)N[C@H](C(=O)N[C@@H](CCCC[N+](C)(C)C)C(=O)N[C@@H](CCC(N)=O)C(=O)N[C@H](C(=O)N[C@@H](C)C(=O)N[C@@H](CCCNC(=N)N)C(=O)N[C@@H](CCCCN)C(=O)N[C@@H](CO)C(N)=O)[C@@H](C)O)[C@@H](C)O` [L3-10mer-K4Me3, H2N-ARTK(Me3)QTARKS-NH2, reference compound], the Ki under setting [2] was 15.6 ± 1.2 µM. Further, the concentration for half-maximal inhibition (IC50) under setting [3] stood at 73 ± 6 µM.
Consider `CC(=O)N[C@@H](C)C(=O)N[C@@H](CCCNC(=N)N)C(=O)N(C)[C@@H](C)C(N)=O` [Δ1, Ac-AR-(N—Me)A-NH2], for which the “binding to WDR5 (in words)” value is “complete loss of its binding to WDR5”.
For `CC(=O)N[C@@H](C)C(=O)N[C@@H](CCCNC(=N)N)C(=O)N[C@@H](C)C(=O)N(C)C` [Δ2b, Ac-ARA-CONMe2] (Ac-Ala-Arg-Ala-NMe2), the “times less potent than Ac-3mer” value was 50. Under setting [2], the Ki is 6.5 ± 1.2 µM. Besides, the IC50 under setting [3] amounted to 30 ± 5 µM.
Regarding `COC(=O)[C@H](C)NC(=O)[C@H](CCCNC(=N)N)NC(=O)[C@H](C)NC(C)=O` [Δ2c, Ac-ARA-COOCH3] (Ac-Ala-Arg-Ala-OMe), the “times less potent than Ac-3mer” value is listed as 10. For the same molecule, the Ki under setting [2] was 1.6 ± 0.2 µM. Moreover, the IC50 under setting [3] was 7.3 ± 0.8 µM.
For the molecule Ac-ARAEV-NH2 [Ac-5mer, Ac-ARAEV-NH2], the Ki was 0.16 ± 0.03 µM. The IC50 (read-out: IC50 ± SD) amounted to 0.75 ± 0.1 µM.
Taken in the same sequence, the figures for Ac-ARAEVH-NH2 [Ac-6mer, Ac-ARAEVH-NH2] were 0.09 ± 0.02 µM and 0.4 ± 0.1 µM.
As for “Ac-ARAEVHL-NH2 [Ac-7mer, Ac-ARAEVHL-NH2]”, the “fold decrease of binding affinity relative to Ac-10mer” value came to 10 and the inhibition constant Ki turned out to be 0.03 ± 0.01 µM. Moreover, under “read-out: IC50 ± SD”, the IC50 amounted to 0.16 ± 0.03 µM.
On to Ac-RAEVHLRKS-NH2 [Ac-9mer], for which the “fold decrease of binding affinity relative to Ac-10mer” value stood at 1500.
Turning to Ac-SARAEVHLRKS-NH2 [Ac-11mer], the Ki under setting [2] is 0.2 ± 0.03 µM. Also, under setting [3], the IC50 was 1.04 ± 0.14 µM.
